The results in this text go back to patent US10138230B2, “Autotaxin inhibitors” (CANCER RESEARCH TECHNOLOGY LIMITED, priority 2015, dated 2018).

Structures can show the parent of a compound that is named as a salt.

This assay addresses human recombinant ATX (Homo sapiens (Human), UniProt Q13822). Nature of the assay: Autotaxin (ATX) activity Quanta Red assay. In kind it is biochemical. The settings on record: 15 μM Rac-1-Palmitoyl-glycero-3-phosphocholine, 2 hours room temperature, determined in duplicate. Here is the method: The ATX enzyme assay (Quanta Red assay) described in accompanying Example section may be used to measure the pharmacological effects of the compounds of the present invention.
Autotaxin (ATX) Activity Quanta Red Assay
Measuring ATX activity using an enzyme coupled Quanta Red assay (Thermo Scientific—Pierce Protein Research Products, Product #15159) was determined as follows. 8 μL human recombinant ATX (final concentration 0.8 μg/mL) in 1× Assay buffer containing 50 mM Tris-HCl (pH 8.0), 5 mM CaCl2 was added to an opaque black flat-bottom 384-well plate (Corning, #3575) containing 2 μL test compound in 40% DMSO (4% final DMSO concentration). 10 μL of Quanta Red, Horseradish peroxidase (HRP), Choline Oxidase (CO), Rac-1-Palmitoyl-glycero-3-phosphocholine solution (final concentration 1:250 for Quanta Red, 0.5units/ml HRP, 0.5units/ml CO, 15 μM Rac-1-Palmitoyl-glycero-3-phosphocholine) in 1× assay buffer (as described previously) was added to each well to start the reaction and the plate was incubated at room temperature for 2 hours. The reaction was stopped after 2 hours with a 20 μL addition of Quanta Red Stop solution (1:20 dilution in distilled water). The above-described mixture with DMSO alone was used as a positive control whereas that with DMSO alone without ATX was taken as a negative control.
For each test compound, ten concentrations were measured covering a range of 6.1 nM to 120 μM to determine IC50 values. The top concentration was decreased to 1.2 μM when a test compound's IC50 value was evaluated in low nanomolar range. Fluorescence was determined in a BMG Labtech Pherastar plus plate reader ([…]). Data were analysed using Excel fit software. IC50 values were determined in duplicate.
`CC1CN(Cc2ccc(N3CC(C(=O)Nc4nnc(CCc5ccc(Cl)cc5)s4)CC3=O)cc2)C[C@H](C)O1` (stereo in doubt) [Compound F125, N-[5-[2-(4-chlorophenyl)ethyl]-1,3,4-thiadiazol-2-yl]-1-[4-[[(2S,6S)-2,6-dimethylmorpholin-4-yl]methyl]phenyl]-5-oxo-pyrrolidine-3-carboxamide]: the IC50 amounted to 8 nM. To `O=C(Nc1cc(CCc2ccc(Cl)cc2)on1)C1CC(=O)N(c2ccc(CN3CCCCC3)cc2)C1` (stereo in doubt) [Compound F146, (3S)-N-[5-[2-(4-chlorophenyyl)ethyl]isoxazol-3-yl]-5-oxo-1-[4-(1-piperidylmethyl)phenyl] pyrrolidine-3-carboxamide] belongs 1 nM; to `O=C(Nc1nnc(CCc2ccc(F)cc2)s1)[C@H]1CC(=O)N(c2ccc(CN3CCOCC3)cc2)C1` (stereo in doubt) [Compound F215, 1-(4-Morpholin-4-ylmethyl-phenyl)-5-oxo-pyrrolidine-3-carboxylic acid {5-[2-(4-fluoro-phenyl)-ethyl]-[1,3,4]thiadiazol-2-yl}-amide; hydrochloride], 3 nM. With `CN(Cc1ccc(N2C[C@@H](C(=O)Nc3nnc(CCc4ccc(Cl)cc4)s3)CC2=O)cc1)C1CCOC1` (stereo partly drawn) [Compound F87, (3S)-N-[5-[2-(4-chlorophenyl)ethyl]-1,3,4-thiadiazol-2-yl]-1-[4-[[methyl(tetrahydrofuran-3-yl)amino]methyl]phenyl]-5-oxo-pyrrolidine-3-carboxamide], the IC50 was 1 nM.

Regarding `CN(Cc1ccc(N2C[C@@H](C(=O)Nc3nnc(CCc4ccc(Cl)cc4)s3)CC2=O)cc1)C1COC1` [Compound F88, (3S)-N-[5-[2-(4-chlorophenyl)ethyl]-1,3,4-thiadiazol-2-yl]-1-[4-[[methyl(oxetan-3-yl)amino]methyl]phenyl]-5-oxo-pyrrolidine-3-carboxamide], the half-inhibitory concentration (IC50) came to 1 nM. To `O=C(Nc1nnc(CCc2ccc(Cl)cc2)s1)[C@H]1CC(=O)N(c2ccc(CN3CCOCC3)cc2)C1` [Compound F89, (3S)-N-[5-[2-(4-chlorophenyl)ethyl]-1,3,4-thiadiazol-2-yl]-1-[4-(morpholino-methyl)phenyl]-5-oxo-pyrrolidine-3-carboxamide] belongs 1 nM. To `CN(Cc1ccc(N2C[C@@H](C(=O)Nc3nnc(CCc4ccc(Cl)cc4)s3)CC2=O)cc1)C1CCOCC1` [Compound F90, (3S)-N-[5-[2-(4-chlorophenyl)ethyl]-1,3,4-thiadiazol-2-yl]-1-[4-[[methyl(tetrahydropyran-4-yl)amino]methyl]phenyl]-5-oxo-pyrrolidine-3-carboxamide] belongs 1 nM; to `O=C(Nc1nnc(CCc2ccc(Cl)cc2)s1)[C@H]1CC(=O)N(c2ccc(CN3CCCCCC3)cc2)C1` [Compound F91, (3S)-1-[4-(azepan-1-ylmethyl)phenyl]-N-[5-[2-(4-chlorophenyl)ethyl]-1,3,4-thiadiazol-2-yl]-5-oxo-pyrrolidine-3-carboxamide], 1 nM; to `CC1CCN(Cc2ccc(N3C[C@@H](C(=O)Nc4nnc(CCc5ccc(Cl)cc5)s4)CC3=O)cc2)CC1` [Compound F92, (S)-1-[4-(4-methyl-piperidin-1-ylmethyl)-phenyl]-5-oxo-pyrrolidine-3-carboxylic acid {5-[2-(4-chloro-phenyl)-ethyl]-[1,3,4]thiadiazol-2-yl}-amide], 1 nM. The figure for `O=C(Nc1nnc(CCc2ccc(Cl)cc2)s1)[C@H]1CC(=O)N(c2ccc(CN3CCCCC3)cc2)C1` [Compound F93, (3S)-N-[5-[2-(4-chlorophenyl)ethyl]-1,3,4-thiadiazol-2-yl]-5-oxo-1-[4-(1-piperidylmethyl)phenyl] pyrrolidine-3-carboxamide] is 1 nM; for `COCCN(C)Cc1ccc(N2C[C@@H](C(=O)Nc3nnc(CCc4ccc(Cl)cc4)s3)CC2=O)cc1` [Compound F94, (3S)-N-[5-[2-(4-chlorophenyl)ethyl]-1,3,4-thiadiazol-2-yl]-1-[4-[[2-methoxyethyl(methyl)amino]methyl]phenyl]-5-oxo-pyrrolidine-3-carboxamide] it is 1 nM. On to `CC1CCN(Cc2ccc(N3CC(C(=O)Nc4nnc(CCc5ccc(Cl)cc5)s4)CC3=O)cc2)CC1` (stereo not drawn) [Compound F95, 1-[4-(4-methyl-piperidin-1-ylmethyl)-phenyl]-5-oxo-pyrrolidine-3-carboxylic acid {5-[2-(4-chloro-phenyl)-ethyl]-[1,3,4]thiadiazol-2-yl}-amide], for which the half-maximal inhibitory concentration (IC50) is 2 nM. Regarding `O=C(Nc1nnc(CCC2CCCCC2)s1)C1CC(=O)N(c2ccc(CN3CCCOCC3)cc2)C1` (stereo not drawn) [Compound F96, N-[5-(2-cyclohexylethyl)-1,3,4-thiadiazol-2-yl]-1-[4-(1,4-oxazepan-4-ylmethyl)phenyl]-5-oxo-pyrrolidine-3-carboxamide], the IC50 worked out at 2 nM. With `O=C(Nc1nnc(CCc2ccc(C(F)(F)F)cc2)s1)[C@H]1CC(=O)N(c2ccc(CN3CCOCC3)cc2)C1` [Compound F97, (3S)-1-[4-(morpholinomethyl)phenyl]-5-oxo-N-[5-[2-[4-(trifluoromethyl)phenyl]ethyl]-1,3,4-thiadiazol-2-yl]pyrrolidine-3-carboxamide], the IC50 turned out to be 2 nM. For `CCN(CC)Cc1ccc(N2CC(C(=O)Nc3nnc(CCc4ccc(Cl)cc4)s3)CC2=O)cc1` (stereo not drawn) [Compound F98, N-[5-[2-(4-chlorophenyl)ethyl]-1,3,4-thiadiazol-2-yl]-1-[4-(diethylaminomethyl)phenyl]-5-oxo-pyrrolidine-3-carboxamide], the 50% inhibitory concentration (IC50) was 2 nM. As for `O=C(Nc1nnc(CCc2ccc(Cl)cc2)s1)C1CC(=O)N(c2ccc(CN3CCCCC3)cc2)C1` (stereo not drawn) [Compound F99, N-[5-[2-(4-chlorophenyl)ethyl]-1,3,4-thiadiazol-2-yl]-5-oxo-1-[4-(1-piperidylmethyl)phenyl] pyrrolidine-3-carboxamide], the 50% inhibitory concentration (IC50) is 2 nM.

For the molecule `COCCN(C)Cc1ccc(N2CC(C(=O)Nc3nnc(CCc4ccc(Cl)cc4)s3)CC2=O)cc1` (stereo not drawn) [Compound F100, N-[5-[2-(4-chlorophenyl)ethyl]-1,3,4-thiadiazol-2-yl]-1-[4-[[2-methoxyethyl(methyl)amino]methyl]phenyl]-5-oxo-pyrrolidine-3-carboxamide], the IC50 was 2 nM. Turning to `O=C(Nc1nnc(CCc2ccc(Cl)cc2)s1)C1CC(=O)N(c2ccc(CN3CCCOCC3)cc2)C1` (stereo not drawn) [Compound F101, N-[5-[2-(4-chlorophenyl)ethyl]-1,3,4-thiadiazol-2-yl]-1-[4-(1,4-oxazepan-4-ylmethyl)phenyl]-5-oxo-pyrrolidine-3-carboxamide], the IC50 amounted to 3 nM. To `O=C(Nc1nnc(CCc2ccc(Cl)cc2)s1)C1CC(=O)N(c2ccc(CN3CCC(O)CC3)cc2)C1` (stereo not drawn) [Compound F102, N-[5-[2-(4-chlorophenyl)ethyl]-1,3,4-thiadiazol-2-yl]-1-[4-[(4-hydroxy-1-piperidyl)methyl]phenyl]-5-oxo-pyrrolidine-3-carboxamide] belongs 3 nM; to `O=C(Nc1nnc(CCc2ccc(Cl)cc2)s1)[C@H]1CC(=O)N(c2ccc(CN3CC4CC4C3)cc2)C1` (stereo partly drawn) [Compound F103, (3S)-1-[4-(3-azabicyclo[3.1.0]hexan-3-ylmethyl)phenyl]-N-[5-[2-(4-chlorophenyl)ethyl]-1,3,4-thiadiazol-2-yl]-5-oxo-pyrrolidine-3-carboxamide], 3 nM. For `O=C(Nc1nnc(CCc2ccc(Cl)cc2)s1)[C@H]1CC(=O)N(c2ccc(CN3CCCOCC3)cc2)C1` [Compound F104, (3S)-N-[5-[2-(4-chlorophenyl)ethyl]-1,3,4-thiadiazol-2-yl]-1-[4-(1,4-oxazepan-4-ylmethyl)phenyl]-5-oxo-pyrrolidine-3-carboxamide], the IC50 amounted to 3 nM. As for `O=C(Nc1nnc(CCc2ccc(Cl)cc2)s1)C1CC(=O)N(c2ccc(CNC3CCOCC3)cc2)C1` (stereo not drawn) [Compound F105, 5-oxo-1-{4-[(tetrahydro-pyran-4-ylamino)-methyl]-phenyl}-pyrrolidine-3-carboxylic acid {5-[2-(4-chloro-phenyl)-ethyl]-[1,3,4]thiadiazol-2-yl}-amide; hydrochloride], the half-maximal inhibitory concentration (IC50) was 3 nM. Consider `O=C(Nc1nnc(CCC2CCCCC2)s1)C1CC(=O)N(c2ccc(CN3CCCCC3)cc2)C1` (stereo not drawn) [Compound F106, N-[5-(2-cyclohexylethyl)-1,3,4-thiadiazol-2-yl]-5-oxo-1-[4-(1-piperidylmethyl)phenyl] pyrrolidine-3-carboxamide], for which the IC50 was 3 nM. As for `O=C(Nc1nnc(CCc2ccc(F)cc2)s1)[C@H]1CC(=O)N(c2ccc(CN3CCOCC3)cc2)C1` [Compound F108, (3S)-N-[5-[2-(4-fluorophenyl)ethyl]-1,3,4-thiadiazol-2-yl]-1-[4-(morpholinomethyl)phenyl]-5-oxo-pyrrolidine-3-carboxamide], the IC50 worked out at 3 nM.
